According to US20060257493A1, “Nanoparticulate delivery systems for treating multi-drug resistance” (priority 2005, published 2006):
Several values for one entry are separate records, joined by “and”; a condition that tells them apart may be missing. Equal entries are not always repeated.

Key:
[1] = test system: SKOV3TR cells (multi-drug resistant, PTX-selected subculture of SKOV3); assay: cells; assay type: cell-based, human
Experimental: (§1) In in-vitro cytotoxicity studies, the wildtype (drug sensitive (DS)) human ovarian cancer cell line SKOV3 was maintained in culture alongside an SKOV3TR subculture that was selected for multi-drug resistance in the presence of increasing concentrations of PTX. For cytotoxicity studies, 96-well plates were prepared with each cell type seeded at 5000 cells/well. The DS and MDR cells were subjected to dose-response studies against PTX, CER and PTX combined with CER, delivered as free drugs in solution or delivered in PEO-PCL nanoparticles. All studies were performed alongside a negative control (cell growth medium), a positive control (polyethyleneimine, PEI), and proper vehicle controls. Since PTX is a cell-cycle dependant chemotherapeutic, all treatments were left to proceed undisturbed for 6 days, allowing ample time for all cells to enter mitosis. Resulting cell death/viability was measured by the MTS (formazan) assay.

[2] = test system: SKOV3 cells (wildtype, drug sensitive human ovarian cancer cell line); assay: In-vitro cytotoxicity, MTS (formazan) assay, 6-day treatment; assay type: cell-based; details: 6 days
Experimental: as §1

SMILES | percent cell viability ([1]; CER alone 20 μM in solution, 6 days) | percent cell viability ([2]; SKOV3, CER alone 10 μM in solution, p<0.05) [%] | percent of MDR cells survived ([1]; 10 nM PTX) [%] | percent cell viability ([1]; 1 μM PTX in solution, 6 days) [%] | viability at 0.1 µM ([1]; Homo sapiens, 144 h, 100 nM PTX in solution, 6 days, read-out: percent cell viability) [%] | viability at 1 µM ([1]; Homo sapiens, 144 h, 1 μM PTX in solution, 6 days, read-out: percent cell viability) [%] | viability at 0.001 µM ([2]; Homo sapiens, SK-OV-3, 144 h, SKOV3, 1 nM PTX in solution, read-out: percent cell viability (cells survived)) [%] | viability at 0.1 µM ([2]; Homo sapiens, SK-OV-3, 144 h, SKOV3, 100 nM PTX in solution, read-out: percent cell viability (cells survived)) [%] | IC50 ([2]; Homo sapiens, SK-OV-3, 144 h, SKOV3, free drug in solution, read-out: IC50 of drug sensitive (SKOV3) cells to PTX in solution) [nM]
CCCCCCCCCCCCC/C=C/[C@@H](O)[C@H](CO)NC(=O)CCCCC [CER, C6-ceramide] | 91.18±7.61% and 91.2±7.6% | 75.08±7.86 | – | – | – | – | – | – | –
CC(=O)O[C@H]1C(=O)[C@@]2(C)[C@H]([C@H](OC(=O)c3ccccc3)[C@]3(O)C[C@H](OC(=O)[C@H](O)[C@@H](NC(=O)c4ccccc4)c4ccccc4)C(C)=C1C3(C)C)[C@]1(OC(C)=O)CO[C@@H]1C[C@@H]2O [PTX, Paclitaxel] | – | – | 100 | 65.6±2.2 | 100 ± 5.78 | 65.7 ± 2.16 | 76 ± 5.92 | 16.4 ± 0.41 | ~5
